# Patent US7816522B2, “Triazolone derivatives” (Eisai Co., Ltd., priority 2006, dated 2010)
# Structures can show the parent of a compound that is named as a salt.
# Molecular target: T1, human clotting factor VIIa (Homo sapiens, UniProt P08709)
# T1 construct: a human clotting factor VIIa (hereinafter, “Factor VIIa”) purified sample; purchased Enzyme Research Laboratories HFVIIa
# Test: Inhibitory activity against clotting factor VIIa (chromogenic substrate Spectrozyme FVIIa, TF/Factor VIIa enzyme solution)
# Assay type: biochemical
# Conditions: human Factor VIIa 5 nmol/L with human TF 10 nmol/L, room temperature 40 minutes, 405 nm
# Procedure, shortened: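 Human Factor VIIa (5 nmol/L) with human TF (10 nmol/L) in Tris-BSA buffer pH 7.4 containing 15 mmol/L CaCl2 and cephalin, with Spectrozyme FVIIa substrate. Reaction 40 min at room temperature; 4-nitroanilide read at 405 nm. IC50 by non-linear regression over 100 μmol/L–0.1 nmol/L.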
# T1 sequence (P08709 213-466 limits assumed): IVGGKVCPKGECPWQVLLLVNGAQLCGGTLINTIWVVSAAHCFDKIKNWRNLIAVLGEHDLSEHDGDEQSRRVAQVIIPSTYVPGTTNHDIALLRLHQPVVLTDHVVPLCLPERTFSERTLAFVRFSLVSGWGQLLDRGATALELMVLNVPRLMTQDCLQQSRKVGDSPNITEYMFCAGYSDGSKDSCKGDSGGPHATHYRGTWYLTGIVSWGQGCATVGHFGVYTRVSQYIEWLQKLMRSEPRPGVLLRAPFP
# T1 sequence (P08709 61-212 limits assumed): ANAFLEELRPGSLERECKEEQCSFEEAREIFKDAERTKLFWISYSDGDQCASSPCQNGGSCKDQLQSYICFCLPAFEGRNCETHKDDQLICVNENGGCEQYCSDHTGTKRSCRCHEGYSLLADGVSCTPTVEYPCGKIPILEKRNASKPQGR
# T1 sequence (P13726 33-295 partner): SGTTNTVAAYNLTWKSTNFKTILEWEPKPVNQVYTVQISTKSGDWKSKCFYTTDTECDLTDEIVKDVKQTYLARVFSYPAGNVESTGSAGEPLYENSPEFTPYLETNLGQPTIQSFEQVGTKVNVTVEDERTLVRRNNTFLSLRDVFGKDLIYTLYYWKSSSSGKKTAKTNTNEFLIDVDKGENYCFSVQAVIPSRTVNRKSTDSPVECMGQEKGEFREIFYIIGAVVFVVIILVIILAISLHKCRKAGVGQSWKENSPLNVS
row,IC50 [nM],SMILES
1,7,"COc1cc(F)c(C(Nc2ccc(C(=N)N)cc2)c2nn(-c3cccnn3)c(=O)[nH]2)cc1OC (racemic) [Example 119, (R) and (S)-4-{[(2-fluoro-4,5-dimethoxyphenyl)-(5-oxo-1-pyridazin-3-yl-4,5-dihydro-1H-[1,2,4]triazol-3-yl)methyl]amino}benzamidine acetate]"
2,7.9,"Cc1cc(OC2CCN(C)CC2)cc(C(Nc2ccc(C(=N)N)cc2)c2nn(-c3ncccn3)c(=O)[nH]2)c1 (racemic) [Example 43, (R) and (S)-4-({[3-methyl-5-(1-methylpiperidin-4-yloxy)phenyl]-(5-oxo-1-pyrimidin-2-yl-4,5-dihydro-1H-[1,2,4]triazol-3-yl)methyl}amino)benzamidine diacetate]"
3,5.4,"COc1cc(OCCF)c(F)c(C(Nc2ccc(C(=N)N)cc2)c2nn(-c3cccnn3)c(=O)[nH]2)c1 (racemic) [Example 151, (R) and (S)-4-{[(2-fluoro-3-(2-fluoroethoxy)-5-methoxyphenyl)-(5-oxo-1-pyridazin-3-yl-4,5-dihydro-1H-[1,2,4]triazol-3-yl)methyl]amino}benzamidine acetate]"
4,59.4,"COc1cc(F)c(C(Nc2ccc(C(=N)N)cc2)c2nn(-c3[nH]ncc3C(=O)O)c(=O)[nH]2)cc1OC (stereo not shown) [Example 157, 5-{3-[(4-carbamimidoylphenylamino)-(2-fluoro-4,5-dimethoxyphenyl)methyl]-5-oxo-4,5-dihydro-[1,2,4]triazol-1-yl}-1H-pyrazole-4-carboxylic acid]"
5,15.1,"CCOc1cc(OC)c(F)c(C(Nc2ccc(C(=N)N)cc2)c2nn(-c3ncccn3)c(=O)[nH]2)c1 (racemic) [Example 69, (R) and (S)-4-{[(5-ethoxy-2-fluoro-3-methoxyphenyl)-(5-oxo-1-pyrimidin-2-yl-4,5-dihydro-1H-[1,2,4]triazol-3-yl)methyl]amino}benzamidine acetate]"
6,9.3,"COc1cc(C(Nc2ccc(C(=N)N)cc2)c2nn(-c3nc[nH]c3C(=O)O)c(=O)[nH]2)c(F)c2c1OCCO2 (single isomer, unassigned) [Example 191, 5-{3-[(R) or (S)-(4-Carbamimidoylphenylamino)-(5-fluoro-8-methoxy-2,3-dihydrobenzo[1,4]dioxin-6-yl)methyl]-5-oxo-4,5-dihydro-[1,2,4]triazol-1-yl}-3H-imidazole-4-carboxylic acid trifluoroacetate]"
7,4.5,"Cc1cc(O[C@@H]2CCOC2)cc(C(Nc2ccc(C(=N)N)cc2)c2nn(-c3ncccn3)c(=O)[nH]2)c1 (mixture of isomers) [Example 59, 4-[((R) and (S)-{3-methyl-5-[(R)-(tetrahydrofuran-3-yl)oxy]phenyl}-(5-oxo-1-pyrimidin-2-yl-4,5-dihydro-1H-[1,2,4]triazol-3-yl)methyl)amino]benzamidine acetate]"
8,3.2,"COc1cc(C(Nc2ccc(C(=N)N)cc2)c2nn(-c3ccsc3C(=O)O)c(=O)[nH]2)cc2c1OCOC2 (racemic) [Example 226, 3-{3-[(R) and (S)-(4-Carbamimidoylphenylamino)-(8-methoxy-4H-benzo[1,3]dioxin-6-yl)methyl]-5-oxo-4,5-dihydro-[1,2,4]triazol-1-yl}thiophene-2-carboxylic acid]"
9,11.8,"COc1cc(F)c(C(Nc2ccc(C(=N)N)cc2F)c2nn(-c3ncccn3)c(=O)[nH]2)cc1OC (racemic) [Example 236, 3-Fluoro-4-{[(R) and (S)-(2-fluoro-4,5-dimethoxyphenyl)-(5-oxo-1-pyrimidin-2-yl-4,5-dihydro-1H-[1,2,4]triazol-3-yl)methyl]amino}benzamidine acetate]"
10,9.9,"CCOc1cc(C(Nc2ccc(C(=N)N)cc2)c2nn(-c3ncccc3C)c(=O)[nH]2)ccc1OCCOC (stereo not shown) [Example 128, 4-({[3-ethoxy-4-(2-methoxyethoxy)phenyl]-[1-(3-methylpyridin-2-yl)-5-oxo-4,5-dihydro-1H-[1,2,4]triazol-3-yl]methyl}amino)benzamidine acetate]"
